Results published in ChEMBL document CHEMBL1201862, “PubChem BioAssay data set” (2004).
The source made the active and inactive calls.

What was measured:
[1] = molecular target: Nuclear receptor subfamily 5 group A member 2 (Homo sapiens, UniProt O00482); type: functional, cell-based;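 also: HEK293T cells transfected with LRH-1 and a StAR promoter luciferase reporter; potency for inhibitors that lower LRH-1 driven reporter light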
Steroidogenic factor 1 = Steroidogenic factor 1 (Homo sapiens, UniProt Q13285); assay: Counterscreen for inverse agonists of the liver receptor homolog-1 (LRH-1; NR5A2): Luminescence-based cell-based high throughput dose response assay to identify inverse agonists of the Steroidogenic Factor 1 Nuclear Receptor (SF1; NR5A1).; type: functional
Sequence of Steroidogenic factor 1 (Q13285 whole entry): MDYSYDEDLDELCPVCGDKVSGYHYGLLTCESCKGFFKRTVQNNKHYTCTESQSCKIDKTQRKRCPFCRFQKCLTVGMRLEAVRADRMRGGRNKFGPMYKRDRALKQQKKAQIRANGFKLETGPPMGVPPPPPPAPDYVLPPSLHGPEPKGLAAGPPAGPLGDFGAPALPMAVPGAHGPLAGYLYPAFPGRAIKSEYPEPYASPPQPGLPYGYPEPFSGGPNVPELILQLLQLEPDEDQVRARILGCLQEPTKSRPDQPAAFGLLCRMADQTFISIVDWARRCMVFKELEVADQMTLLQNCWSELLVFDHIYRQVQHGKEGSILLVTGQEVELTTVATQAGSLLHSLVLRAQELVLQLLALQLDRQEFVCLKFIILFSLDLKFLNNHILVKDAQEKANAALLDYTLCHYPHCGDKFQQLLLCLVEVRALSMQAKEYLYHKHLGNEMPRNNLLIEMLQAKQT

[2] = A Cell Based Secondary Assay To Explore Cytotoxicity of Compounds that Sensitize Mycobacterium Tuberculosis to Beta-Lactam Antibiotics.; type: functional
[3] = StAR promoter reporter inhibition counter-screen, dose response, counter-screen for LRH-1 inverse agonist project, cell-based, luminescence, luciferase reporter (AID 651969); type: functional
Vero = assay: cells; type: functional; details: Chlorocebus sabaeus
[4] = molecular target: T1, Tyrosine-protein phosphatase non-receptor type 11 (Homo sapiens, UniProt Q06124); assay: SHP2 phosphatase inhibition, dose response, selectivity assay for STEP inhibitor project, biochemical (AID 602367); type: functional; details: read-out: IC50_Mean
T1 sequence (Q06124 whole entry): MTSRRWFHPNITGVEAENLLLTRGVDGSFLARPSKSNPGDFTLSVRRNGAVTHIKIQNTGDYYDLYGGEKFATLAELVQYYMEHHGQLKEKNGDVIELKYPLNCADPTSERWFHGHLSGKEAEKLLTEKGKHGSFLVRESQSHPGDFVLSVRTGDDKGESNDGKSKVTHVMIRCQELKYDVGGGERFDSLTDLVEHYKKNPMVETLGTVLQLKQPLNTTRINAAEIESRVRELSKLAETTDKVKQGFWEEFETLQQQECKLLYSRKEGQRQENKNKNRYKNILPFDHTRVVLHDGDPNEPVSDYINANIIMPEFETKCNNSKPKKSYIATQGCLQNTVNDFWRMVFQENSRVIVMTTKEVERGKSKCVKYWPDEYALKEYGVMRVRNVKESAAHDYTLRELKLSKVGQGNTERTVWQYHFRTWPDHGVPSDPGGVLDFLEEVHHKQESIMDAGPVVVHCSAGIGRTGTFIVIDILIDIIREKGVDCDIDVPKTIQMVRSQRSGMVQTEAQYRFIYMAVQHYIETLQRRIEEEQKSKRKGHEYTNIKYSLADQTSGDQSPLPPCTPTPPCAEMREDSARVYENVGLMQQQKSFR

[5] = molecular target: T2, Tyrosine-protein phosphatase non-receptor type 5 (Homo sapiens, UniProt P54829); assay: STEP phosphatase inhibitors, confirmation, biochemical, fluorescence intensity, uHTS hits (AID 602372); type: functional; details: read-out: IC50_Mean
T2 sequence (P54829 whole entry): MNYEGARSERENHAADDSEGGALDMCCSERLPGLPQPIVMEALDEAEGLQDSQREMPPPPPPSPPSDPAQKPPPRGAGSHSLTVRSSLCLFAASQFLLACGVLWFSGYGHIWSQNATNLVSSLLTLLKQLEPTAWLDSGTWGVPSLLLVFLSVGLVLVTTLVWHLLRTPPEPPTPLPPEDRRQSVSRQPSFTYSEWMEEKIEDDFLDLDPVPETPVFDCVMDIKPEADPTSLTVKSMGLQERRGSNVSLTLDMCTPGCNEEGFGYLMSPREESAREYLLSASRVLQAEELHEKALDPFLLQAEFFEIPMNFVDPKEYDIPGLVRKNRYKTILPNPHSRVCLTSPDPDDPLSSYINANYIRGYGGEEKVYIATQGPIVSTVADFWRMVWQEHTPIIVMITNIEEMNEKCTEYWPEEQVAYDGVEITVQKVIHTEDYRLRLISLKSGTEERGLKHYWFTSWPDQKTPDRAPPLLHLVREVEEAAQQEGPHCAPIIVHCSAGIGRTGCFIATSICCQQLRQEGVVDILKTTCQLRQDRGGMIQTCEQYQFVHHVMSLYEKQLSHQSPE

[6] = molecular target: T3, Voltage-gated N-type calcium channel alpha-1B subunit/Amyloid beta A4 precursor protein-binding family A member 1 (Homo sapiens, UniProt Q00975+Q02410); type: protein assay
T3 sequence (Q00975 whole entry): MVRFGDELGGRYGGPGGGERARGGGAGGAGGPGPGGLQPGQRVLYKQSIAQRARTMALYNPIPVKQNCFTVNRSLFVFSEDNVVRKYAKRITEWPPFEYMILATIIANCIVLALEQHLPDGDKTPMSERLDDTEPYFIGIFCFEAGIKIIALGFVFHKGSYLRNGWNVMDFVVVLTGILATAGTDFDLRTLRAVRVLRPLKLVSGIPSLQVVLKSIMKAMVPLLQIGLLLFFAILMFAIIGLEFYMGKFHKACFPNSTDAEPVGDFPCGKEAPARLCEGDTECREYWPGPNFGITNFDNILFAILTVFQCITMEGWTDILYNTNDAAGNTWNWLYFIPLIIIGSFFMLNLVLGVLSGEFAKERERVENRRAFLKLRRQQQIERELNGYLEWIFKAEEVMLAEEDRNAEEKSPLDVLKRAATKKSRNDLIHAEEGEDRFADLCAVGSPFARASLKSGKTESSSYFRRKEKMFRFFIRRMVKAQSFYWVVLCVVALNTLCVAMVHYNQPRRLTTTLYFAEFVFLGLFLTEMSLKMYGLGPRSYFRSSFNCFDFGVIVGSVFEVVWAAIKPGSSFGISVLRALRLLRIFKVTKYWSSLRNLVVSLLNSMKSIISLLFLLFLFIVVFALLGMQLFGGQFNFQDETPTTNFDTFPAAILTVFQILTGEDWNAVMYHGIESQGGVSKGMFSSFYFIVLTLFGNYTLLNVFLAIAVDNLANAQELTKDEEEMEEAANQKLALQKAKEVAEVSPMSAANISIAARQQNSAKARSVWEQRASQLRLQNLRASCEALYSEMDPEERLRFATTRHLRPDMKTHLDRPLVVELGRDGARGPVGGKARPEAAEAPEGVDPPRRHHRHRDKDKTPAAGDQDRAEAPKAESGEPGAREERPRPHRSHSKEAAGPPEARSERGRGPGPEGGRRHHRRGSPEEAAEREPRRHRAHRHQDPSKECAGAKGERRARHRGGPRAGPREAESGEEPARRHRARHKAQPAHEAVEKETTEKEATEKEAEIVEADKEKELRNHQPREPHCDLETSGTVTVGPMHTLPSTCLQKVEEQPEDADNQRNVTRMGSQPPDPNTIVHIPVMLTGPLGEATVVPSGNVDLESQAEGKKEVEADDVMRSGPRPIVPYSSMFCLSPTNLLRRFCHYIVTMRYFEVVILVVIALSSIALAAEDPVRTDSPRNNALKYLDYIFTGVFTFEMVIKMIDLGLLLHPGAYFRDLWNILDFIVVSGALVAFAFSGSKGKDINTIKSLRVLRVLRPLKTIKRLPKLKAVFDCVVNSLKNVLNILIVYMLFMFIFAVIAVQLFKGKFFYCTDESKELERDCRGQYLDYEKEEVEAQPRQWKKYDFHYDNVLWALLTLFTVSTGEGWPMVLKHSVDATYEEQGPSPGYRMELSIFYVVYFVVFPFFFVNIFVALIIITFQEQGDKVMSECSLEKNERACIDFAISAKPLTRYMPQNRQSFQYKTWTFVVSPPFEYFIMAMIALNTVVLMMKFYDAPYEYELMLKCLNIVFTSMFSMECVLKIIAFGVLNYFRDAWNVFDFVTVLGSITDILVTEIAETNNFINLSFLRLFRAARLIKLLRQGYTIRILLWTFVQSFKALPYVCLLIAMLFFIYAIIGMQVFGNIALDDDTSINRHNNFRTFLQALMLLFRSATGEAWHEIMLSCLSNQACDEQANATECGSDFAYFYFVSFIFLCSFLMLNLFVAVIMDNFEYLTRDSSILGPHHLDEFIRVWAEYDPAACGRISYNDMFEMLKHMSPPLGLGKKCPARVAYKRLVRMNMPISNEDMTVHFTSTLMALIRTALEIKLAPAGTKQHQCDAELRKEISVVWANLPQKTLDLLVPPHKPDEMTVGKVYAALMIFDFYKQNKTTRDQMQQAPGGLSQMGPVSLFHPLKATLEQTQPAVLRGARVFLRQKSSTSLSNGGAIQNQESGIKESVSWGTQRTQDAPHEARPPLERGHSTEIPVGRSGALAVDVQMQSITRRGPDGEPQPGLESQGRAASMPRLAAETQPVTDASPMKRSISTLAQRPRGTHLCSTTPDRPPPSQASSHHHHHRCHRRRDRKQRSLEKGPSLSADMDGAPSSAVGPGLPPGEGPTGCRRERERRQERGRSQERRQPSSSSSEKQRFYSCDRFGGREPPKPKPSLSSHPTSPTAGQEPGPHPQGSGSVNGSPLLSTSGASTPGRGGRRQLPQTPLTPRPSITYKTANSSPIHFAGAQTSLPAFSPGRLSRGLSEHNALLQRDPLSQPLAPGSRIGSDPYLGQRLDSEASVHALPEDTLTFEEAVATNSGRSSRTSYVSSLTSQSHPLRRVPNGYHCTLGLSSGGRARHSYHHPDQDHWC
T3 sequence (Q02410 whole entry): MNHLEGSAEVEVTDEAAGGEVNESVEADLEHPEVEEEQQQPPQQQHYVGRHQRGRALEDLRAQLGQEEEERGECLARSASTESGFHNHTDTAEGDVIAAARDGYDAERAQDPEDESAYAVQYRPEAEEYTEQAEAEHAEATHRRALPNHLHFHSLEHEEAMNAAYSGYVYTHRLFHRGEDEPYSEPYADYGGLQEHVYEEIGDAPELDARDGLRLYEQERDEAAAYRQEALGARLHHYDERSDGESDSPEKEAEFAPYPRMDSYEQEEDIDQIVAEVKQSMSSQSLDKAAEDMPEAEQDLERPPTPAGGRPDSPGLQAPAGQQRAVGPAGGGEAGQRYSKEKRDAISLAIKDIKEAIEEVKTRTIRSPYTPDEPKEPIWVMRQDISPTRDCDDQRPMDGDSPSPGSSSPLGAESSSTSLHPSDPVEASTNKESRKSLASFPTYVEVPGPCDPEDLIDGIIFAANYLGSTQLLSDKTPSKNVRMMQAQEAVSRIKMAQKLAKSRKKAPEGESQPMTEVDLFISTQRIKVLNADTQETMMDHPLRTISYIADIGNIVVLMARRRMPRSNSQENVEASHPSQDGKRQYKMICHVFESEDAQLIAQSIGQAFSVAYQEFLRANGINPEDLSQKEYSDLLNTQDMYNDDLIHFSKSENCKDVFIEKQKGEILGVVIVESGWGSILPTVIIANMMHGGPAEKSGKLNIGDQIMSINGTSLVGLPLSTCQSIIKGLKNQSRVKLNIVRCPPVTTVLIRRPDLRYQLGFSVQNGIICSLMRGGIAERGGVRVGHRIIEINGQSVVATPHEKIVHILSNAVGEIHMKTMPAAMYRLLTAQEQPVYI

Beta-lactamase [7] = molecular target: Beta-lactamase (Pseudomonas aeruginosa, UniProt Q79MP6);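 also: biochemical dose-response test of metallo-beta-lactamase enzyme inhibition, read out by epi-absorbance; purified recombinant IMP-1 metallo-beta-lactamase with nitrocefin as substrate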
[8] = molecular target: Dual specificity protein phosphatase 3 (Homo sapiens, UniProt P51452); assay: VHR phosphatase inhibition, dose response, selectivity assay for STEP inhibitor project, biochemical (AID 602374); type: functional; details: read-out: IC50_Mean
Beta-lactamase [9] = molecular target: Beta-lactamase (Salmonella choleraesuis (strain SC-B67), UniProt Q5J463)
[10] = molecular target: T3, Voltage-gated N-type calcium channel alpha-1B subunit/Amyloid beta A4 precursor protein-binding family A member 1; type: protein assay; remark: listed apart in the source
[11] = molecular target: Tyrosine-protein phosphatase non-receptor type 22 (Homo sapiens, UniProt Q9Y2R2); assay: PTPN22 phosphatase inhibition, dose response, selectivity assay for STEP inhibitor project, biochemical (AID 624241); type: functional
Sequence of Tyrosine-protein phosphatase non-receptor type 22 (Q9Y2R2 whole entry): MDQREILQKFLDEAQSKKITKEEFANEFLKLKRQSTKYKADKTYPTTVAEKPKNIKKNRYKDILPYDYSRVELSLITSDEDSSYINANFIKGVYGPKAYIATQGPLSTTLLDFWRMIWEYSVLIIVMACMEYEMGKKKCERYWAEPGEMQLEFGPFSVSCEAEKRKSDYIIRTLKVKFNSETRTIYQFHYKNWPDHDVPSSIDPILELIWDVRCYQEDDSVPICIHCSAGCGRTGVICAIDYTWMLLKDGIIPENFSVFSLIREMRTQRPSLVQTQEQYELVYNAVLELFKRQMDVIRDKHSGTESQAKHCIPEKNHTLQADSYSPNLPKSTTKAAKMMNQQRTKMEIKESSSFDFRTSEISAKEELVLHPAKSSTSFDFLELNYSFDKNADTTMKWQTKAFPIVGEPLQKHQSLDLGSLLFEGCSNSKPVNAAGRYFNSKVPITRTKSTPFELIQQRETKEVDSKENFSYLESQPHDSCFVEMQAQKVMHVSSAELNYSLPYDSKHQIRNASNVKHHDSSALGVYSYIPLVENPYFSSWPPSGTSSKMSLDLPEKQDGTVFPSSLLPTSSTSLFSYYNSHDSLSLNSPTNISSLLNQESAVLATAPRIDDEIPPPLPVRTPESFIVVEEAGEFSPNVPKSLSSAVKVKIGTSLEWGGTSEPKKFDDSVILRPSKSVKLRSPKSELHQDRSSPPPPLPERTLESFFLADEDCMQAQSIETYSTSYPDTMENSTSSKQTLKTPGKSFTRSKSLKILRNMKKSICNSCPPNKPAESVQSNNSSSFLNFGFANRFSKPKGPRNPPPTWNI

[12] = molecular target: T4, Low molecular weight phosphotyrosine protein phosphatase (Homo sapiens, UniProt P24666); type: functional; details: read-out: IC50_Mean
T4 sequence (P24666 whole entry): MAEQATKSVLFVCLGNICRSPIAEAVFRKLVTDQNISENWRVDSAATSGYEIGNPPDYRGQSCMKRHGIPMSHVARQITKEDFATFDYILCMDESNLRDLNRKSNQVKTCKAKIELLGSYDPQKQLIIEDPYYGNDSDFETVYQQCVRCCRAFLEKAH

[13] = molecular target: T4, Low molecular weight phosphotyrosine protein phosphatase; type: functional; details: read-out: IC50_Mean; remark: listed apart in the source
Beta Lactamase = Beta Lactamase (Pseudomonas aeruginosa, UniProt Q932Y6);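 also: confirmatory high-throughput screen measuring VIM-2 metallo-beta-lactamase inhibition by epi-absorbance in dose response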
[14] = molecular target: T5, Apoptotic protease-activating factor 1 (Homo sapiens, UniProt O14727); assay: SAR analysis of small molecule Activators of Apaf-1 in a Fluorescent assay.; type: functional; details: read-out: EC50_Mean;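 also: caspase-3 cleavage of fluorogenic Rh110 DEVD substrate downstream of apoptosome activation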
T5 sequence (O14727 whole entry): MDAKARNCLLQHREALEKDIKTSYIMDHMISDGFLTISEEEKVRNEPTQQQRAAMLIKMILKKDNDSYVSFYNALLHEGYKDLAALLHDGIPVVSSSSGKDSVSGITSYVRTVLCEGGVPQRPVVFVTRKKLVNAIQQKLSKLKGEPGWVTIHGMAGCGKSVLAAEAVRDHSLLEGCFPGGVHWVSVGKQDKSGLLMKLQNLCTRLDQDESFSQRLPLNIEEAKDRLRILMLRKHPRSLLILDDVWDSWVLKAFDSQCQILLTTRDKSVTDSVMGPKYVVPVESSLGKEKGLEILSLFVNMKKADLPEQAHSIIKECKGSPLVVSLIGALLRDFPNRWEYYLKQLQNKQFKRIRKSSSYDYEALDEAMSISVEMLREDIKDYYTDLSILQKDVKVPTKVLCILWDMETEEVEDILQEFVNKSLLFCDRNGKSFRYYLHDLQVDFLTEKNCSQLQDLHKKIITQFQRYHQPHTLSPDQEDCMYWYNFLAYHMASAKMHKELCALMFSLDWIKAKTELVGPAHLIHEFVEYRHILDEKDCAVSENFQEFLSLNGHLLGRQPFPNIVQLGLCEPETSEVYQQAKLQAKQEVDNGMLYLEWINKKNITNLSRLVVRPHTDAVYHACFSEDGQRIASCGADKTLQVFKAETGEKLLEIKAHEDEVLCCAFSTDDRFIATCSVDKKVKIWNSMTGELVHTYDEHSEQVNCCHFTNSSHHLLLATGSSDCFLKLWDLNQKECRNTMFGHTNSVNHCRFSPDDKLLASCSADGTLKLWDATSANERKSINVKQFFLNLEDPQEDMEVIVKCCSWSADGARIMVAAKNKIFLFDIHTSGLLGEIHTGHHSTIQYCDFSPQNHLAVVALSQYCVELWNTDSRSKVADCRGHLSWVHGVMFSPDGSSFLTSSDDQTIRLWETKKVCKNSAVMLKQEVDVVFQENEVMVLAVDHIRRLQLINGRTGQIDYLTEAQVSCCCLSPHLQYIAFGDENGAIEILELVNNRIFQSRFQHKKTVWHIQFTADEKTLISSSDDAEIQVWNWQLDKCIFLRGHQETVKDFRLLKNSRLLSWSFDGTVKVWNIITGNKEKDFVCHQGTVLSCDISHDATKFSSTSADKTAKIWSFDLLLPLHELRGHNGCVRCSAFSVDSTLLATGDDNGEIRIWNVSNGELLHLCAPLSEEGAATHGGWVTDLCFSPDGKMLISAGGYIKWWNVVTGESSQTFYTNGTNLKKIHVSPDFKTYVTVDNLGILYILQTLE

Sequence of Nuclear receptor subfamily 5 group A member 2 (O00482 whole entry): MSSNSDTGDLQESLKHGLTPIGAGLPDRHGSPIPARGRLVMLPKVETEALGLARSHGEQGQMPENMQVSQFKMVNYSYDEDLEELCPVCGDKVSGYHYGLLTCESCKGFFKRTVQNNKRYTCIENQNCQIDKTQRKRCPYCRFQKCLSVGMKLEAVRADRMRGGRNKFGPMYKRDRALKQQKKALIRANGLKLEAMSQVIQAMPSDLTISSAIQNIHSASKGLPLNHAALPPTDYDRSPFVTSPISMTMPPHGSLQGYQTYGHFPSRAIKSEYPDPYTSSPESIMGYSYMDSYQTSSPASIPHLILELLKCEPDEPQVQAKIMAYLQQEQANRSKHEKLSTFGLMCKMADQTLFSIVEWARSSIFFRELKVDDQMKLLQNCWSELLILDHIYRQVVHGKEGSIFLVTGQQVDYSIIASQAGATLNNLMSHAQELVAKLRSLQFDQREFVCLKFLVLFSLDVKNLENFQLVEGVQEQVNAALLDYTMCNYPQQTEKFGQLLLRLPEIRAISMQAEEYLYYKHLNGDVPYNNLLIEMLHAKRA

SMILES: Cc1onc(NC(=O)c2ccc([N+](=O)[O-])o2)c1Br
- IC50 [1]: 1.33 µM (active)
- IC50 (Steroidogenic factor 1): 0.369 µM (active)
- CC50 [2]: 8.19 µM (active)
- IC50 [3]: 35.9 µM (inactive)
- CC50 (Vero): 20.8 µM (active)

SMILES: C/C(=N\Nc1ccc(S(N)(=O)=O)cc1[N+](=O)[O-])c1cccs1
- IC50 [4]: 2.13 µM (active)
- IC50 [5]: 13.9 µM (active)
- IC50 [6]: > 50 µM (inactive)
- IC50 (Beta-lactamase [7]): > 59.6 µM (inactive)
- IC50 [8]: 3.04 µM (active)
- IC50 (Beta-lactamase [9]): > 59.6 µM (inactive)
- IC50 [10]: 1.42 µM (active)
- IC50 [11]: 81.3 µM (inactive)
- IC50 [12]: 38.2 µM (inactive)
- IC50 [13]: > 80 µM (inactive)
- IC50 (Beta Lactamase): > 59.6 µM (inactive)

SMILES: CCOC(=O)C1CCc2[nH]c3ccc(OC)cc3c2C1 (configuration not stated)
- EC50 [14]: > 100 µM (inactive)
